Measured values: ChEMBL document CHEMBL4219131, “Design and synthesis of estrogen receptor ligands with a 4-heterocycle-4-phenylheptane skeleton” (Bioorg Med Chem, 2018)
Active and inactive are the calls of the source. The calls are words filed in the database; no cut-off is given here.

Legend:
Estrogen receptor [1] = molecular target: T1, Estrogen receptor (Homo sapiens, UniProt P03372); assay: Agonist activity at recombinant human GAL4-fused ERalpha expressed in HEk293 cells by luciferase reporter gene assay; assay type: cell-based
T1 sequence (P03372 whole entry): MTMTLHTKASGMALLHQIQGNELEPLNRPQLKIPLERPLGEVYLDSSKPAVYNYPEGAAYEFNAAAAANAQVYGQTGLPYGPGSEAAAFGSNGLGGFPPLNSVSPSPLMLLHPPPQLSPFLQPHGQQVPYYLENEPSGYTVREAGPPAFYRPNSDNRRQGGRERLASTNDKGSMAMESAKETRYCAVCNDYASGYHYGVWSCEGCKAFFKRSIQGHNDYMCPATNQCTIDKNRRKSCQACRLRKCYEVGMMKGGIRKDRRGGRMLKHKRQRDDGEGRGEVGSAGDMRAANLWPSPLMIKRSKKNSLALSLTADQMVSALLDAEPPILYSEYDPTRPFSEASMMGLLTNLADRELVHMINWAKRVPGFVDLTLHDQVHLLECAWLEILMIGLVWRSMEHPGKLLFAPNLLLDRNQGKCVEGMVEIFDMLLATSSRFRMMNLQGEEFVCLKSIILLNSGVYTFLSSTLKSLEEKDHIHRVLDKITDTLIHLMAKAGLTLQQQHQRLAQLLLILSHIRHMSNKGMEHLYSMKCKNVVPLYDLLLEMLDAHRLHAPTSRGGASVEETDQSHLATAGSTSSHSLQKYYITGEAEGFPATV

[2] = molecular target: T2, Estrogen receptor (Homo sapiens) (UniProt P03372); assay: Antagonist activity at ERalpha (unknown origin) expressed in human MCF7 cells assessed as inhibition of E2-induced response at 10 uM by dual luciferase reporter gene assay; assay type: cell-based
T2 sequence (whole entry): T1 sequence (P03372 whole entry)

Estrogen receptor [3] = molecular target: T1, Estrogen receptor; assay: biochemical
Description: Displacement of Fluormone ES2 from full length recombinant human untagged ERalpha expressed in Sf insect cells by fluorescence polarization assay

[4] = molecular target: T2, Estrogen receptor (Homo sapiens); assay: Agonist activity at recombinant human GAL4-fused ERalpha expressed in HEk293 cells at 30 uM by luciferase reporter gene assay; assay type: cell-based
Estrogen receptor [5] = molecular target: T1, Estrogen receptor
Description: Antagonist activity at ERalpha (unknown origin) expressed in human MCF7 cells assessed as inhibition of E2-induced response by dual luciferase reporter gene assay

| Structure (SMILES) | EC50 (Estrogen receptor [1]) [nM] | inhibition [2] | IC50 (Estrogen receptor [3]) [nM] | Activity [4] | IC50 (Estrogen receptor [5]) [nM] |
| --- | --- | --- | --- | --- | --- |
| CCCC(CCC)(c1ccc(O)c(C)c1)c1c[nH]c2cc(OCc3ccccc3)ccc12 | – | 44% | 613 | inactive | – |
| CCCC(CCC)(c1ccc(O)c(C)c1)c1c[nH]c2cccc(OCc3ccccc3)c12 | – | inactive | > 10000 | inactive | – |
| CCCC(CCC)(c1ccc(O)c(C)c1)c1ccc(C(=O)OCC)n1C | – | 41% | 1040 | inactive | – |
| CCCC(CCC)(c1ccc(O)c(C)c1)c1ccc(C(=O)OCC)[nH]1 | – | – | 195 | inactive | 450 |

The next lines start with the values.

| EC50 (Estrogen receptor [1]) [nM] | inhibition [2] | IC50 (Estrogen receptor [3]) [nM] | Activity [4] | IC50 (Estrogen receptor [5]) [nM] | Structure (SMILES) |
| --- | --- | --- | --- | --- | --- |
| > 30000 | inactive | 4680 | – | – | CCCC(CCC)(c1ccc(O)c(C)c1)c1cccs1 |
| – | inactive | > 10000 | inactive | – | CCCC(CCC)(c1ccc(O)c(C)c1)c1ccc(C(=O)O)n1C |
| – | inactive | > 10000 | inactive | – | CCCC(CCC)(c1ccc(O)c(C)c1)c1ccc(C(=O)O)[nH]1 |
| – | – | – | inactive | – | CCCC(CCC)(c1ccc(O)c(C)c1)c1ccc(O)c(C)c1 |
| > 30000 | inactive | 1130 | – | – | CCCC(CCC)(c1ccc(O)c(C)c1)c1cc(C)cs1 |
